This is an account of results in patent publication US9718790B2, “Triazine derivative and pharmaceutical composition having an analgesic activity comprising the same” (SHIONOGI & CO., LTD., priority 2010, dated 2017).

The target in one assay is human P2X3 receptor (Homo sapiens (Human), UniProt P56373). Nature of the assay: Evaluation of human P2X3 receptor inhibitory activity (Fluo-3 calcium fluorescence, FDSS 3000, ATP stimulation).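 Note: stimulus was 50 nM ATP with fluorescence followed for 3 min, and the response per well was peak post-ATP fluorescence divided by the reading at measurement start.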 To be noted: C6BU-1 cells stably expressing human P2X3 receptor. The class given is cell-based.
Chain of human P2X3 receptor (P56373 whole entry): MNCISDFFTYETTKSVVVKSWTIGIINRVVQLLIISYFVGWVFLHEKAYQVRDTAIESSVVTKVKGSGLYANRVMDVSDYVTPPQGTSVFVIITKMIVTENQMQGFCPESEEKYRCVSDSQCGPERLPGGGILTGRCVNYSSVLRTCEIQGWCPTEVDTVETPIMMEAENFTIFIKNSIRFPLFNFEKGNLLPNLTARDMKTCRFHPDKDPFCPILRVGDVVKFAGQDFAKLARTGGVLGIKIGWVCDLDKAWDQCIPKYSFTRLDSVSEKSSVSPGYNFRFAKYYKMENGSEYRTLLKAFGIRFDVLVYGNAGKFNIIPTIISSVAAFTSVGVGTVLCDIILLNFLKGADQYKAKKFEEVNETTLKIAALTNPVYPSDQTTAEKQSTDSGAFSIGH
With `CCCc1ccc(/N=c2\[nH]c(=O)n(C[C@H](C)C(=O)OC)c(=O)n2Cc2ccc(C)cc2)cc1C` [Compound I-1210], the IC50 was 37 nM.
Still for that read-out and setting: for `CCOC(=O)CCn1c(=O)[nH]/c(=N\c2ccc(OC(C)C)c(COC(C)=O)c2)n(Cc2ccc(C)cc2)c1=O` [Compound I-1425] the value was 50 nM; for `Cc1ccc2cc(/N=c3\[nH]c(=O)n([C@@H](C)[C@@H](C)C(=O)O)c(=O)n3Cc3ccc(Cl)cc3)ccc2n1` [Compound I-1350], 28 nM.
The same measure, in the same setting: under `COC(=O)[C@H](C)Cn1c(=O)[nH]/c(=N\c2ccc(OC(C)C)c(C)c2)n(CC2CCCCC2)c1=O` [Compound I-0631] stands 10 nM.
For the compound `COC(=O)[C@H](C)[C@H](C)n1c(=O)[nH]/c(=N\c2ccc(Oc3ccc(C)nc3)cc2)n(Cc2ccc(Cl)cc2)c1=O` [Compound I-1375], the IC50 was determined as 5 nM.
Consider `COC(=O)[C@@H](C)[C@@H](C)n1c(=O)[nH]/c(=N\c2ccc(OC(C)C)c(C)c2)n(Cc2ccc(Cl)cc2)c1=O` [Compound I-0811], for which the IC50 was determined as 40 nM.
Same read-out and setting: for `Cc1cc2cc(/N=c3\[nH]c(=O)n(CCCOC4CCCCO4)c(=O)n3Cc3ccc(Cl)cc3)ccc2o1` (centres unmarked) [Compound I-2025] the value was 5 nM.
With `O=c1[nH]/c(=N\c2ccc(OC3CCC3)cc2)n(Cc2ccc(Cl)cc2)c(=O)n1CCCO` [Compound I-1918], the IC50 stood at 12 nM.
Still for that read-out and setting: for `CCOc1ccc(/N=c2\[nH]c(=O)n(C[C@H](C)C(=O)O)c(=O)n2Cc2ccc(Cl)cc2)cc1F` [Compound I-0609] the value was 31 nM.
On the same count and under the same terms, for `Cc1ccc(Cn2c(=O)n(C[C@H](C)C(=O)O)c(=O)[nH]/c2=N\c2ccc(N3CCCCCC3)cc2)cc1` [Compound I-1237] the value was 183 nM; for `Cc1ccc(Oc2ccc(/N=c3\[nH]c(=O)n(CC(=O)O)c(=O)n3Cc3ccc(Cl)cc3)cc2)cn1` [Compound I-1934], 198 nM.
Same read-out and setting: for `COC(=O)NCCCn1c(=O)[nH]/c(=N\c2ccc(OC(C)C)c(F)c2)n(Cc2ccc(Cl)cc2)c1=O` [Compound I-0608] the value was 6 nM; for `C[C@@H](Cn1c(=O)[nH]/c(=N\c2cccc(C(F)(F)F)c2)n(Cc2ccc(Cl)cc2)c1=O)C(=O)O` [Compound I-0628], 61 nM.
On to `COc1cc(/N=c2\[nH]c(=O)n(CCCOC3CCCCO3)c(=O)n2Cc2ccc(Cl)cc2)ccc1OC(C)C` (centres unmarked) [Compound I-2000], for which the IC50 worked out at 3 nM.
With `CCOC(=O)CC(C)(C)n1c(=O)[nH]/c(=N\c2ccc(OC(C)C)c(F)c2)n(Cc2ccc(Cl)cc2)c1=O` [Compound I-0822], the concentration for half-maximal inhibition (IC50) was found to be 26 nM.
Still for that read-out and setting: for `CO/N=C(\Cn1c(=O)[nH]/c(=N\c2ccc(OC(C)C)c(F)c2)n(Cc2ccc(Cl)cc2)c1=O)C(=O)O` [Compound I-0737, 1-(4-chlorobenzyl)-6-(3-fluoro-4-isopropoxyphenylimino)-3-(2-hydroxycarbonyl-2-methoxyiminoethyl)-1,3,5-triazinane-2,4-dion] the value was 140 nM; for `COc1cc(/N=c2\[nH]c(=O)n(CC(C)(C)C(=O)O)c(=O)n2Cc2ccc(C)cc2)ccc1OC(C)C` [Compound I-1280], 27 nM; for `Cn1c(=O)[nH]/c(=N\c2ccc(Oc3cncc(C(=O)O)c3)cc2)n(Cc2ccc(Cl)cc2)c1=O` [Compound I-2103], 20 nM.
Still for that read-out and setting: for `Cc1ccc(Cn2c(=O)n(C)c(=O)[nH]/c2=N\c2ccc(Oc3ccc(C(=O)O)cc3)cc2)cc1` [Compound I-2061] the value was 148 nM; for `COc1cc(/N=c2\[nH]c(=O)n(CC3COC(C)(C)OC3)c(=O)n2Cc2ccc(Cl)cc2)ccc1OC(C)C` [Compound I-1984], 9 nM; for `CCCOc1ccc(/N=c2\[nH]c(=O)n(C[C@H](C)C(=O)OC)c(=O)n2Cc2ccc(Cl)cc2)cc1Cl` [Compound I-0743], 13 nM.
On the same count and under the same terms, under `COC(=O)[C@@H](C)Cn1c(=O)[nH]/c(=N\c2ccc(OC(C)C)cc2)n(Cc2ccc(C)cc2)c1=O` [Compound I-0606] stands 21 nM.

The same assay, now with this note: C6BU-1 cells stably expressing human P2X3 receptor, Fluo-3 fluorescence, FDSS 3000.
With `Cc1cc(/N=c2\[nH]c(=O)n(C[C@H](C)C(=O)O)c(=O)n2Cc2ccc(Cl)cc2)ccc1CCC1CC1` [Compound I-1024], the IC50 was determined as 161 nM.
With `CCc1nc2ccc(/N=c3\[nH]c(=O)n(CCCC(=O)O)c(=O)n3Cc3ccc(C)cc3)cc2s1` [Compound I-1631], the IC50 was 8 nM.
`CCN(c1ccc(/N=c2\[nH]c(=O)n(C[C@H](C)C(=O)O)c(=O)n2Cc2ccc(Cl)cc2)cc1)C(C)C` [Compound I-0963]: the concentration for half-maximal inhibition (IC50) was determined as 662 nM.
Regarding `CCc1cc2cc(/N=c3\[nH]c(=O)n(C[C@H](C)C(=O)OC)c(=O)n3Cc3ccc(Cl)cc3)ccc2o1` [Compound I-1765], the half-maximal inhibitory concentration (IC50) came to 9 nM.
The same measure, in the same setting: under `CC[C@@H](C)Oc1ccc(/N=c2\[nH]c(=O)n([C@H](C)CC(=O)OC)c(=O)n2Cc2ccc(C)cc2)cc1` [Compound I-0939] stands 34 nM.
The same measure, in the same setting: under `COC(=O)Cn1c(=O)[nH]/c(=N\c2ccc(Oc3ccc(OC)nc3)cc2)n(Cc2ccc(Cl)cc2)c1=O` [Compound I-1753] stands 9 nM.
In the case of `CCn1c(=O)[nH]/c(=N\c2ccc3nc(C)sc3c2)n(Cc2ccc(Cl)cc2)c1=O` [Compound I-1702], the half-inhibitory concentration (IC50) was determined as 4 nM.
On the same count and under the same terms, under `CCOC(=O)C1(Cn2c(=O)[nH]/c(=N\c3ccc(OC(C)C)c(C)c3)n(Cc3ccc(C)cc3)c2=O)CC1` [Compound I-0941] stands 5 nM; under `CCOC(=O)CCn1c(=O)[nH]/c(=N\c2ccc3nc(C4CC4)sc3c2)n(Cc2ccc(C)cc2)c1=O` [Compound I-1559], 5 nM; under `COC(=O)[C@@H](C)Cn1c(=O)[nH]/c(=N\c2ccc(OC(C)C)c(C)c2)n(Cc2ccc(C(C)C)cc2)c1=O` [Compound I-0997], 680 nM.
As to `CC(C)=Cc1ccc(/N=c2\[nH]c(=O)n(C[C@H](C)C(=O)O)c(=O)n2Cc2ccc(C)cc2)cc1F` [Compound I-1174], the 50% inhibitory concentration (IC50) is 27 nM.
Same read-out and setting: under `COC(=O)[C@@H](C)Cn1c(=O)[nH]/c(=N\c2ccc(OC3CCOCC3)nc2)n(Cc2ccc(C)cc2)c1=O` [Compound I-1118] stands 387 nM; under `COC(=O)[C@@H](C)Cn1c(=O)[nH]/c(=N\c2ccc(CC3CCCC3)cc2)n(Cc2ccc(Cl)cc2)c1=O` [Compound I-1097], 141 nM; under `CCCOc1ccc(/N=c2\[nH]c(=O)n(CC3(C(=O)O)CC3)c(=O)n2Cc2ccc(Cl)cc2)cc1` [Compound I-0925], 59 nM.
Same read-out and setting: under `O=C(O)CCn1c(=O)[nH]/c(=N\c2cccc(S(F)(F)(F)(F)F)c2)n(Cc2ccc(Cl)cc2)c1=O` [Compound I-1651] stands 54 nM; under `Cc1ccc(Cn2c(=O)n(C[C@H](C)C(=O)O)c(=O)[nH]/c2=N\c2ccc(C3CCCCC3)cc2)cc1` [Compound I-1108], 50 nM; under `Cc1ccc(Cn2c(=O)n(C[C@H](C)CO)c(=O)[nH]/c2=N\c2ccc(CC(C)C)c(Cl)c2)cc1` [Compound I-1579], 7 nM.

Still in this assay, the particulars now being: human P2X3 receptor, Test Example 1.
For the compound `O=c1[nH]/c(=N\c2ccc(Oc3cnccn3)cc2)n(Cc2ccc(Cl)cc2)c(=O)n1CC(CO)CO` [Compound I-2710], the IC50 came to 6 nM.
The same measure, in the same setting: under `CCn1c(=O)[nH]/c(=N\c2ccc(Oc3ccc(C#N)cn3)cc2)n(Cc2ccc(C)cc2)c1=O` [Compound I-2395] stands 4 nM; under `O=C(O)Cn1c(=O)[nH]/c(=N\c2ccc(Oc3cnsn3)cc2)n(Cc2ccc(Cl)cc2)c1=O` [Compound I-2643], 491 nM; under `CCOC(=O)CN(C(=O)OC(C)(C)C)c1cc(Oc2ccc(/N=c3\[nH]c(=O)n(CC)c(=O)n3Cc3ccc(Cl)cc3)cc2)ccn1` [Compound I-2540], 104 nM.
Still for that read-out and setting: under `CCn1c(=O)[nH]/c(=N\c2ccc(Oc3ccc(C(=O)O)nn3)cc2)n(Cc2ccc(Cl)cc2)c1=O` [Compound I-2273] stands 12 nM.
Still for that read-out and setting: for `CNC(=O)[C@H](CCO)n1c(=O)[nH]/c(=N\c2ccc(OC(C)C)c(C)c2)n(Cc2ccc(Cl)cc2)c1=O` [Compound I-0869] the value was 574 nM; for `COc1cc(/N=c2\[nH]c(=O)n(C)c(=O)n2Cc2ccc(Cl)cc2)ccc1Oc1cccc(C(=O)O)n1` [Compound I-2424], 20 nM; for `COc1cc(/N=c2\[nH]c(=O)n(C)c(=O)n2Cc2ccc(Cl)cc2)ccc1Oc1cccc(C#N)n1` [Compound I-2390], 7 nM.
As for `CNC(=O)Cn1c(=O)[nH]/c(=N\c2ccc(Oc3ccon3)cc2)n(Cc2ccc(Cl)cc2)c1=O` [Compound I-2590], the IC50 was 17 nM.
As to `CCn1c(=O)nc(Nc2ccc(Oc3ccc(C(=O)O)nn3)cc2)n(Cc2ccc(F)cc2)c1=O` [Compound I-2699], the IC50 came to 134 nM.
On the same count and under the same terms, under `CC(=O)Nc1ccc(Oc2ccc(/N=c3\[nH]c(=O)n(C)c(=O)n3Cc3ccc(Cl)cc3)cc2)cn1` [Compound I-2429] stands 5 nM; under `CC[C@@H](Cn1c(=O)[nH]/c(=N\c2ccc(OC(C)C)c(C)c2)n(Cc2ccc(C)cc2)c1=O)C(=O)O` [Compound I-0886], 76 nM.
With `Cc1cc(/N=c2\[nH]c(=O)n(C[C@H](C)C(=O)O)c(=O)n2Cc2ccc(Cl)cc2)cnc1OC1CCC1` [Compound I-1483], the IC50 came to 87 nM.
Same read-out and setting: under `CC(=O)NCCn1c(=O)[nH]/c(=N\c2ccc(Oc3ccon3)cc2)n(Cc2ccc(Cl)cc2)c1=O` [Compound I-2524] stands 34 nM; under `COC(=O)c1ccc(Oc2ccc(/N=c3\[nH]c(=O)n(C)c(=O)n3Cc3ccc(Cl)cc3)cc2)cn1` [Compound I-2402], 3 nM; under `CNC(=O)Cn1c(=O)[nH]/c(=N\c2ccc(Oc3cnsn3)cc2)n(Cc2ccc(Cl)cc2)c1=O` [Compound I-2676], 13 nM.
With `CCCOc1ccc(/N=c2\[nH]c(=O)n(CCCC(=O)OCC)c(=O)n2Cc2ccc(C)cc2)cc1Cl` [Compound I-0861], the IC50 was found to be 19 nM.
The same measure, in the same setting: under `CCn1c(=O)[nH]/c(=N\c2ccc3nc(OCC(=O)O)sc3c2)n(Cc2ccc(Cl)cc2)c1=O` [Compound I-2326] stands 108 nM; under `Cc1nsc(Oc2ccc(/N=c3\[nH]c(=O)n(C[C@H](O)CO)c(=O)n3Cc3ccc(Cl)cc3)cc2)n1` [Compound I-2518], 4 nM; under `Cc1nsc(Oc2ccc(/N=c3\[nH]c(=O)n(C[C@H](O)CO)c(=O)n3Cc3ccc(F)cc3)cc2F)n1` [Compound I-2707], 7 nM.
